How the values were obtained:
TEM8 (293-TEM8 cells) = TEM8 (293-TEM8 cells) (Homo sapiens, UniProt Q9H6X2); assay: biochemical; type: binding
[1] = molecular target: T1, extracellular vWA domain of TEM8 (Homo sapiens, UniProt Q9H6X2); assay: biochemical; type: binding
T1 sequence (Q9H6X2 44-215 limits assumed): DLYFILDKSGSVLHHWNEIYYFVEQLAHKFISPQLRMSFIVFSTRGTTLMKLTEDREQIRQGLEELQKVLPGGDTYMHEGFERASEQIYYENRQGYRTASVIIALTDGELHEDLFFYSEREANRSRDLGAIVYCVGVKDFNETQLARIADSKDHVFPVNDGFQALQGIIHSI

TEM8 (293-TEM8 cells), sequence (Q9H6X2 33-564): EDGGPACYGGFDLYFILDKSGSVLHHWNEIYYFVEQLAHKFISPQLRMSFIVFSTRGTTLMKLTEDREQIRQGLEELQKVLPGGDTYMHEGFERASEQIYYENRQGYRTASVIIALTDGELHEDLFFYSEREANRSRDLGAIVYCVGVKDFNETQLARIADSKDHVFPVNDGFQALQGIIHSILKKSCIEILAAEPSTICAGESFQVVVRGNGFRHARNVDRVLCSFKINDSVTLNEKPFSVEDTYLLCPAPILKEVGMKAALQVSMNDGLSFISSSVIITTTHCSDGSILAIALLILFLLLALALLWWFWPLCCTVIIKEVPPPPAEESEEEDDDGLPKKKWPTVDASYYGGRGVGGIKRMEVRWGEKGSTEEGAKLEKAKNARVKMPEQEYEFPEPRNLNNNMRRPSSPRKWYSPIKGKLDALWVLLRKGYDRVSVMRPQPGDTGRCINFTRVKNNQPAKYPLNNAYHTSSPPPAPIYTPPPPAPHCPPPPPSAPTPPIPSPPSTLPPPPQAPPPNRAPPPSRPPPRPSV

## CC[C@H](C)[C@H](NC(=O)[C@H](Cc1ccc(O)cc1)NC(=O)[C@H](CC(C)C)NC(=O)[C@@H]1CCCN1C(=O)[C@H](CC(C)C)NC(=O)[C@H](CCCNC(=N)N)NC(=O)[C@H](CC(=O)O)NC(=O)[C@H](CC(N)=O)NC(=O)[C@H](Cc1ccc(O)cc1)NC(=O)[C@@H](N)CCCCN)C(=O)N[C@@H](CO)C(=O)N[C@@H](CC(N)=O)C(=O)N1CCC[C@H]1C(=O)O [QQM, KYNDRLPLYISNP]
TEM8 (293-TEM8 cells)
  IC50: 33 nM
[1]
  IC50: 304 nM
